A word on the IC50: it is the concentration that inhibits the measured activity by half. Broadly, the melting point is the temperature of the solid-liquid transition.

Structures are written as SMILES. Counter-ions that a name gives are not always drawn.

The target of the first series is T1, human ROCK-1 kinase domain (1 to 477 amino acids) (Homo sapiens, UniProt Q13464).
T1 construct: a vector that expresses the kinase domain (1 to 477 amino acids) of the ROCK-1 protein; His-Tag (6xHis); made in house; host or cells: Sf9 insect cells, recombinant baculovirus (pBAC-1 vector)
T1 sequence (Q13464 1-477): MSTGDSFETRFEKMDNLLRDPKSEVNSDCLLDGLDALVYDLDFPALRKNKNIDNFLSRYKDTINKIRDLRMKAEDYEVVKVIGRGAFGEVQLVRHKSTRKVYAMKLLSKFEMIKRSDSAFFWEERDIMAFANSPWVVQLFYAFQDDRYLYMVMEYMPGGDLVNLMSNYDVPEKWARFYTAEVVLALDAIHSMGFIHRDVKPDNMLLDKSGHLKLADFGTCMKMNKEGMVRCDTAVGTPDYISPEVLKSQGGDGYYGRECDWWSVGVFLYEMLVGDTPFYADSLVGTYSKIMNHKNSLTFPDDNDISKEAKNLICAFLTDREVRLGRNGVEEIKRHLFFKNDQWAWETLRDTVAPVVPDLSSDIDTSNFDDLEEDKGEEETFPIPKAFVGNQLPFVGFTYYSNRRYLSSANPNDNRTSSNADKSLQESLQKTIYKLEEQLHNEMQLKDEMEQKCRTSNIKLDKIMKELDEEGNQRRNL
Nature of the series: Rho kinase inhibitory activity (inhibitory activity on human Rho kinase). It counts as biochemical. The note with it: recombinant His-tagged human ROCK-1 kinase domain, histone substrate, 1 μM [32P]ATP, room temperature 20 min. On the procedure:
Rho Kinase Inhibitory Activity (Inhibitory Activity on Human Rho Kinase)
Human Rho kinase was prepared as follows. Using the following primer prepared based on the human ROCK-1 cDNA sequence reported by Ishizaki et al. (T. Ishizaki et al. EMBO J. 15, 1885-1893, 1996) and Human Placenta cDNA (Clontech, Lot. 7030086) as a template, PCR amplification was carried out.
The amplified DNA fragment was digested with Sac I and Not I, and inserted into the Sac I/Not I site of a commercially available vector for insect cell expression, pBAC-1 (Novagenn), whereby a […] human ROCK-1 protein expression vector was prepared. […]
A reaction mixture (total amount 100 μl) containing 20 mM (N-morpholino)propanesulfone acid-NaOH (pH 7.2), 0.1 mg/ml bovine serum albumin, 5 mM dithiothreitol, 10 mM β-glycerophosphoric acid, 50 μM sodium vanadate, 10 mM magnesium chloride, 1 μM [^32P] […] Then, the radioactivity incorporated into the substrate was measured using a liquid scintillation counter. […]
Turning to `N[C@H]1CCSc2cc(C(=O)Nc3ccncc3)ccc21` [Example 10, (S)-4-amino-N-(4-pyridyl)thiochromane-7-carboxamide], the IC50 came to 13 nM.

Test system in another series: not given
Experiment: not given
Settings: not given
For `NC1CCS(=O)(=O)c2cc(C(=O)Nc3ccncc3)ccc21` (stereo not drawn) (as salt: HCl) (hydrate or solvate) [Example 1, 4-amino-N-(4-pyridyl)thiochromane-7-carboxamide 1,1-dioxide], the melting point is > 230 °C (dec.).
On the same count and under the same terms, with `N[C@H]1CCSc2cc(C(=O)Nc3ccncc3)ccc21` (as salt: HCl) (hydrate or solvate) [Example 10, (S)-4-amino-N-(4-pyridyl)thiochromane-7-carboxamide] the figure was > 260 °C (dec.); with `N[C@@H]1CCS(=O)(=O)c2cc(C(=O)Nc3ccncc3)ccc21` (as salt: HCl) (hydrate or solvate) [Example 6, (R)-4-amino-N-(4-pyridyl)thiochromane-7-carboxamide 1,1-dioxide], > 275 °C (dec.); with `N[C@@H]1CCS(=O)(=O)c2cc(C(=O)Nc3ccncc3)ccc21` (as salt: HCl) (hydrate or solvate) [Example 7, (R)-4-amino-N-(4-pyridyl)thiochromane-7-carboxamide 1,1-dioxide], > 250 °C (dec.).
The same measure, in the same setting: the value for `NC1CCSc2cc(C(=O)Nc3ccncc3)ccc21` (stereo not drawn) (as salt: HCl) [Example 2, 4-amino-N-(4-pyridyl)thiochromane-7-carboxamide] was > 280 °C (dec.).
